# Like-named read-outs stand apart in the source and are kept apart here.
# Assays:
# Assay type in all cases: cell-based, human
# [1] = tested on: IL-10-induced JAK1/TYK2 signal pathway; experiment: IL-10-induced JAK1/TYK2 signal pathway STAT3-Luc reporter gene assay in U2OS cells; conditions: Homo sapiens, U2OS cells, STAT3-Luc reporter, IL-10 10 ng/mL, read-out: Half inhibition dose (IC50) on IL-10-induced JAK1/TYK2 signal pathway
# From the text: Cytokine IL-10 is one of the main members of IL-10 family. The receptor that cytokine IL-10 binds to consists of two kinds of subunits, i.e., IL-10R1 and IL-10R2, which respectively couple with JAK1 and TYK2. After the coupling of IL-10 with its receptor, interaction of phosphorylation occurs between JAK1 and TYK2 to form STAT3 docking site for phosphorylation of STAT3. The phosphorylated STAT3 enters the nucleus and drives the transcription and expression of downstream genes.
# The reporter gene plasmid STAT3-Luc Reporter used in the present invention has luciferase expression sequence as the reporter gene, upstream of which is a promoter sequence containing multiple STAT3 binding sites. When phosphorylated STAT3 induced by IL-10 signal pathway binds to the promoter of STAT3-Luc Reporter plasmid, luciferase is transcribed and expressed. The excitation fluorescence catalyzed by Luciferase can be detected after the addition of […] substrate, whose intensity can quantitively reflect the activation level of the signal pathway.
# Human osteosarcoma cell line U20S was commercially available from American Type Culture Collection (ATCC), and relevant culture conditions referred to those from ATCC. It was known that such cell line could express IL-10R2, JAK1, TYK2 and STAT3, therefore, by exogenous expression of IL-10R1 gene, a complete IL-10 signal pathway could be established. The human IL-10R1 subunit overexpression plasmid pCMV3-IL10RA-EGFP was constructed by Shanghai Genechem Co., Ltd., and capable of simultaneously expressing enhanced green fluorescent protein. In the subsequent detection and calculation, the signal of green fluorescent protein in the tested sample was used as a reference for transfection efficiency calibration of the luciferase reporter gene signal. Reporter plasmid STAT3-Luc Reporter was commercially available from Ji Man Biotech (Shanghai) Co., Ltd.
# X-tremeGENE 9 DNA Transfection Reagent (Roche) was used for the transfection of plasmid DNA into cells, Cell Culture Lysis 5× reagent (Promega) and Luciferase Assay System (Promega) were used in cell lysate preparation and enzyme-substrate reaction for luciferase reporter gene detection. Green fluorescent protein signal and luciferase reporter gene signal were both detected by Tecan Spark™ 10M multimode microplate reader. The inhibition rate of the tested compound on the IL-10 signal pathway reporter gene signal and the half inhibition dose IC50 were both calculated using Microsoft Excel and GraphPad Prism 7.00 software.
# U2OS cell line was inoculated in 96-well plate with flat bottom at 5000 cells per well, and cultured overnight at 37° C. and 5% CO2 followed by plasmid transfection. Following the instructions and using X-tremeGENE 9 DNA Transfection Reagent, pCMV3-IL10RA-EGFP and STAT3-Luc Reporter plasmids were co-transfected into the inoculated U2OS cells. After 24 hours of transfection, the tested compound was added respectively for a final concentration of 0, 0.1, 0.3, 1, 3, 10, 30, 100, or 300 nM. After 6 hours of culture at 37° C. and 5% CO2, IL-10 cytokine (Human IL-10 PEPROTECH 200-10-10UG) was added to each well for a final concentration of 10 ng/mL, the well in which neither compound nor cytokine was added was designated as 0% control well. The culture was continued for 24 hours before testing.
# Cell lysate was prepared by using Cell Culture Lysis reagent and transferred to 96-well plate with half-well clear bottom. The green fluorescent protein signal value was detected at Ex485/Em520 using Tecan microplate reader, and recorded. After adding to each well the luciferase substrate from Luciferase Assay System, the signal value of luciferase-substrate reaction was immediately detected at 560 nm using Tecan microplate reader, and recorded.
# Using Microsoft Excel software, the signal value of luciferase-substrate reaction of each well was calculated and calibrated based on the signal value of green fluorescent protein of each well. […]
# [2] = tested on: EPO-induced JAK2 signal pathway; experiment: EPO-induced proliferation of UT-7 cells (JAK2 signal); conditions: Homo sapiens, UT7; UT-7 cell proliferation, EPO 10 ng/mL, 72 hours; read-out: Inhibition activity IC50 on EPO-induced JAK2 signal pathway
# Summary of the method: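 […] was derived from inhibition rates across doses, scaled between wells lacking compound and cytokine (0) and EPO without compound (100), using alamarBlue fluorescence at Ex530/Em590. Compound (final 0-10000 nM) and 10 ng/mL EPO were given to UT-7 cells at 15000 per well for 72 h at 37° C.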
# [3] = tested on: IL-2-induced JAK1/JAK3 signal pathway; experiment: IL-2-induced proliferation of KHYG-1 cells (JAK1/JAK3 signal); conditions: Homo sapiens, read-out: Inhibition activity IC50 on IL-2-induced JAK1/JAK3 signal pathway
# Summary of the method: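 Controls were wells lacking both compound and cytokine (0%) and compound-free IL-2 wells (100%). C50 was calculated from inhibition rates across doses.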
# [4] = KHYG-1 cell proliferation, IL-2 10 ng/mL, 72 hours
IC50 ([1]; U2OS) [µM],SMILES,IC50 [2] [µM],"IC50 [3, 4] [µM]",IC50 [1] [µM],"IC50 ([3]; KHYG-1, 72 h) [µM]"
0.00147,CONC(=O)c1cnc(Nc2ccc(OC)cn2)cc1Nc1ccccc1N(C)S(C)(=O)=O [Example 101],> 10,> 10,,
0.000623,"CONC(=O)c1cnc(Nc2cccc(C)n2)cc1Nc1ccccc1N(C)S(C)(=O)=O [Example 102, N-methoxy-4-((2-(N-methylmethanesulfonamido)phenyl)amino)-6-((6-methylpyridin-2-yl)amino)nicotinamide]",> 10,> 10,,
0.00181,"CONC(=O)c1cnc(Nc2cccc(F)n2)cc1Nc1ccc(C)cc1N(C)S(C)(=O)=O [Example 106, 6-((6-fluoropyridin-2-yl)amino)-N-methoxy-4-((4-methyl-2-(N-methylmethanesulfonamido)phenyl)amino)nicotinamide]",> 10,> 10,,
0.00187,CONC(=O)c1cnc(Nc2ccc(OC)cn2)cc1Nc1ccc(C)cc1N(C)S(C)(=O)=O [Example 108],> 10,> 10,,
0.000733,"CONC(=O)c1cnc(Nc2cccc(F)n2)cc1Nc1ccc(C)nc1N(C)S(C)(=O)=O [Example 109, 6-((6-fluoropyridin-2-yl)amino)-N-methoxy-4-((6-methyl-2-(N-methylmethanesulfonamido)pyridin-3-yl)amino)nicotinamide]",> 10,> 10,,
0.00151,CONC(=O)c1cnc(Nc2cc(C)c(F)cn2)cc1Nc1ccc(C2CC2)cc1N(C)S(C)(=O)=O [Example 110],> 10,> 10,,
0.00109,"CONC(=O)c1cnc(Nc2ccc(C#N)cn2)cc1Nc1ccc(C2CC2)cc1N(C)S(C)(=O)=O [Example 111, 4-((4-cyclopropyl-2-(N-methylmethanesulfonamido)phenyl)amino)-6-((5-cyanopyridin-2-yl)amino)-N-methoxy nicotinamide]",> 10,> 10,,
0.000711,CONC(=O)c1cnc(Nc2cc(C)nc(C)n2)cc1Nc1ccc(C2CC2)cc1N(C)S(C)(=O)=O [Example 112],> 10,> 10,,
0.000414,"CCONC(=O)c1cnc(Nc2ccc(OC)cc2)cc1Nc1ccc(Cl)cc1N(C)S(C)(=O)=O [Example 113, 4-((4-chloro-2-(N-methylmethanesulfonamido)phenyl)amino)-N-ethoxy-6-((4-methoxyphenyl)amino)nicotinamide]",> 10,> 10,,
0.00032,"CCONC(=O)c1cnc(Nc2ccc(C#N)cn2)cc1Nc1ccc(Cl)cc1N(C)S(C)(=O)=O [Example 114, 4-((4-chloro-2-(N-methylmethanesulfonamido)phenyl)amino)-N-ethoxy-6-((5-cyanopyridin-2-yl)amino)nicotinamide]",> 10,> 10,,
,"CCONC(=O)c1cnc(Nc2cccc(F)n2)cc1Nc1ccccc1NS(=O)(=O)C1CC1 [Example 116, 4-((2-(cyclopropylsulfonamido)phenyl)amino)-N-ethoxy-6-((6-fluoropyridin-2-yl)amino)nicotinamide]",> 10,,0.000471,> 10
0.00128,Cc1cc(Nc2cc(Nc3ccc(C4CC4)cc3N(C)S(C)(=O)=O)c(C(=O)NOCC(F)(F)F)cn2)nc(C)n1 [Example 118],> 10,> 10,,
0.00153,"CN(c1cc(C2CC2)ccc1Nc1cc(Nc2cccc(F)n2)ncc1C(=O)NOCC(F)(F)F)S(C)(=O)=O [Example 119, 4-((4-cyclopropyl-2-(N-methylmethanesulfonamido)phenyl)amino)-6-((6-fluoropyridin-2-yl)amino)-N-(2,2,2-trifluoroethoxy)nicotinamide]",> 10,> 10,,
0.000946,"CCONC(=O)c1cnc(Nc2cc(C)c(F)cn2)cc1Nc1ccc(C2CC2)cc1N(C)S(C)(=O)=O [Example 125, 4-((4-cyclopropyl-2-(N-methylmethanesulfonamido)phenyl)amino)-N-ethoxy-6-((5-fluoro-4-methylpyridin-2-yl)amino)nicotinamide]",> 10,> 10,,
0.000702,"CCONC(=O)c1cnc(Nc2ccc(C#N)cn2)cc1Nc1ccc(C2CC2)cc1N(C)S(C)(=O)=O [Example 126, 6-((5-cyanopyridin-2-yl)amino)-4-((4-cyclopropyl-2-(N-methylmethanesulfonamido)phenyl)amino)-N-ethoxy nicotinamide]",> 10,> 10,,
0.000776,"C#Cc1ccc(Nc2cc(Nc3cc(C)nc(C)n3)ncc2C(=O)NOCC)c(N(C)S(C)(=O)=O)c1 [Example 127, 6-((2,6-dimethylpyrimidin-4-yl)amino)-N-ethoxy-4-((4-ethynyl-2-(N-methylmethanesulfonamido)phenyl)amino)nicotinamide]",> 10,> 10,,
0.000697,"CCONC(=O)c1cnc(Nc2ccc(F)cn2)cc1Nc1ccc(Cl)cc1N(C)S(C)(=O)=O [Example 128, 4-((4-chloro-2-(N-methylmethanesulfonamido)phenyl)amino)-N-ethoxy-6-((5-fluoropyridin-2-yl)amino)nicotinamide]",> 10,> 10,,
0.00108,"CCONC(=O)c1cnc(Nc2cccc(F)n2)cc1Nc1ccc(Cl)cc1N(C)S(C)(=O)=O [Example 129, 4-((4-chloro-2-(N-methylmethanesulfonamido)phenyl)amino)-N-ethoxy-6-((6-fluoropyridin-2-yl)amino)nicotinamide]",> 10,> 10,,
0.000802,CCONC(=O)c1cnc(Nc2ccc(F)cn2)cc1Nc1ccc(N2CCOCC2)cc1N(C)S(C)(=O)=O [Example 130],> 10,> 10,,
0.000572,"CCONC(=O)c1cnc(Nc2cc(C)nc(C)n2)cc1Nc1ccc(OC)cc1N(C)S(C)(=O)=O [Example 131, 6-((2,6-dimethylpyrimidin-4-yl)amino)-N-ethoxy-4-((4-methoxy-2-(N-methylmethanesulfonamido)phenyl)amino)nicotinamide]",> 10,> 10,,
0.000977,"CCONC(=O)c1cnc(Nc2cc(C)nc(C)n2)cc1Nc1ccc(N2CCCCC2)cc1N(C)S(C)(=O)=O [Example 132, 6-((2,6-dimethylpyrimidin-4-yl)amino)-N-ethoxy-4-((2-(N-methylmethanesulfonamido)-4-(piperidin-1-yl)phenyl)amino)nicotinamide]",> 10,> 10,,
